The values that follow come from PubChem BioAssay (NCI).

Some test systems named below: 786-0 renal; A549 NSCLC; ACHN renal; CCRF-CEM leukemia; K-562 leukemia; NCI-H460 lung; SK-OV-3 ovarian; SR leukemia; TK-10 renal; UACC-257 melanoma; UACC-62 melanoma.
Assay in all cases: inhibition of tumour cell growth, NCI panel, 48 h

SMILES strings stand for the structures.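 Five concentrations, 48 hours, 96-well plates. At the GI50, growth is halved. TGI marks complete inhibition of growth.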 A value given as a limit tells only on which side of the number the result lay.

Regarding `Cc1c(C)c2c(c(N)c1C#N)C(=O)N(NC(=S)Nc1ccccc1)C2=O`, the TGI in the experiment on 786-0 renal, with A549 NSCLC, in the experiment with ACHN renal, in the experiment with CCRF-CEM leukemia, in the experiment on K-562 leukemia and in the experiment on NCI-H460 lung was more than 100 µM in each case. Also, the TGI in the experiment with SK-OV-3 ovarian was more than 100 µM; with SR leukemia it was 83.5 µM; in the experiment with TK-10 renal, more than 100 µM; in the experiment on UACC-257 melanoma, more than 100 µM; in the experiment with UACC-62 melanoma, more than 100 µM.

For the molecule `Cc1cc(C)n(C(=CC(=O)C(Cl)Cl)n2nc(C)cc2C)n1`, the TGI in the experiment on 786-0 renal was 10 µM; in the experiment on A549 NSCLC it was 67 µM; in the experiment with ACHN renal, 22.3 µM; in the experiment on CCRF-CEM leukemia, 4.46 µM; in the experiment with K-562 leukemia it was 7.42 µM; with NCI-H460 lung, 34.1 µM. Moreover, the TGI was more than 100 µM with SK-OV-3 ovarian; 5.69 µM in the experiment on SR leukemia; 15.1 µM in the experiment on TK-10 renal; 4.97 µM in the experiment on UACC-257 melanoma; 7.84 µM in the experiment with UACC-62 melanoma.

As to `CCOC(=O)/C=C(/OCC)[C@@H]1C(C(=O)c2ccc(Cl)cc2)[C@@H]1/C(=C\C(=O)OCC)OCC` (stereo partly drawn), the TGI is more than 100 µM in the experiment with 786-0 renal; more than 100 µM in the experiment with A549 NSCLC; more than 69.1 µM with ACHN renal; more than 100 µM in the experiment with CCRF-CEM leukemia; more than 22.3 µM in the experiment on K-562 leukemia; more than 100 µM with NCI-H460 lung. For the same molecule, the TGI in the experiment on SK-OV-3 ovarian was more than 100 µM; in the experiment with SR leukemia, more than 100 µM; in the experiment with TK-10 renal, 43.6 µM; in the experiment on UACC-257 melanoma, more than 100 µM; in the experiment with UACC-62 melanoma, more than 100 µM.

Turning to `Cc1cc(C)nc(NS(=O)(=O)c2ccc(NC(=O)c3ccc4nc5ccccc5c(Nc5ccc(S(=O)(=O)N=C(N)N)cc5)c4c3)cc2)n1`, the TGI with 786-0 renal, in the experiment with A549 NSCLC, in the experiment with ACHN renal, in the experiment with CCRF-CEM leukemia, in the experiment on K-562 leukemia and in the experiment with NCI-H460 lung was more than 100 µM throughout. For the same molecule, the TGI in the experiment on SK-OV-3 ovarian, with SR leukemia, in the experiment on TK-10 renal, in the experiment on UACC-257 melanoma and with UACC-62 melanoma was more than 100 µM in each case.

On to `N=C(N)c1ccc(N=Nc2c(O)c(C(=O)Nc3ccccc3)cc3ccccc23)cc1`, for which the TGI was 30.2 µM in the experiment with 786-0 renal; more than 100 µM in the experiment on A549 NSCLC; more than 53.6 µM in the experiment with ACHN renal; 5.92 µM in the experiment on CCRF-CEM leukemia; more than 80.4 µM in the experiment with K-562 leukemia; more than 75.3 µM in the experiment on NCI-H460 lung. The TGI is more than 90.8 µM with SK-OV-3 ovarian; more than 75.8 µM in the experiment on SR leukemia; more than 68 µM in the experiment on TK-10 renal; more than 100 µM in the experiment on UACC-257 melanoma; more than 100 µM in the experiment with UACC-62 melanoma.

For `O=c1[nH]c2ccccc2c(=O)n1/N=C\c1ccccc1O`, the TGI in the experiment on 786-0 renal, with A549 NSCLC, with ACHN renal, in the experiment with CCRF-CEM leukemia, with K-562 leukemia and with NCI-H460 lung was more than 100 µM throughout. Moreover, the TGI with SK-OV-3 ovarian, in the experiment with SR leukemia, in the experiment with TK-10 renal, with UACC-257 melanoma and in the experiment on UACC-62 melanoma was more than 100 µM throughout.

As to `COC(=O)[C@]1(c2cc3ccccc3[nH]2)CC2CNC1C1OC(C)(C)OC21` (stereo partly drawn), the TGI in the experiment on 786-0 renal, in the experiment with A549 NSCLC, in the experiment with ACHN renal, with CCRF-CEM leukemia, in the experiment on K-562 leukemia and in the experiment with NCI-H460 lung was more than 100 µM in each case. Besides, the TGI in the experiment on SK-OV-3 ovarian, in the experiment with SR leukemia, with TK-10 renal, in the experiment on UACC-257 melanoma and with UACC-62 melanoma was more than 100 µM each time.

Take `COc1ccc(Nc2nc(N)c(C(=O)c3ccco3)s2)cc1`: the TGI in the experiment with 786-0 renal was more than 80.1 µM; in the experiment with A549 NSCLC, more than 100 µM; in the experiment with ACHN renal, more than 100 µM; in the experiment with CCRF-CEM leukemia it was more than 56.1 µM; in the experiment with K-562 leukemia, more than 100 µM; in the experiment on NCI-H460 lung it was more than 53.3 µM. The TGI in the experiment on SK-OV-3 ovarian was more than 100 µM; in the experiment on SR leukemia, more than 33.8 µM; in the experiment on TK-10 renal it was more than 57.5 µM; with UACC-257 melanoma it was more than 100 µM; in the experiment with UACC-62 melanoma, more than 100 µM.

`CCOC(=O)NC(Nc1ccc(C(=O)O)cc1)(C(F)(F)F)C(F)(F)F`: the TGI in the experiment on 786-0 renal, with A549 NSCLC, in the experiment on ACHN renal, with CCRF-CEM leukemia, in the experiment with K-562 leukemia and in the experiment with NCI-H460 lung was more than 100 µM in each case. The TGI in the experiment on SK-OV-3 ovarian, in the experiment with SR leukemia, with TK-10 renal, in the experiment with UACC-257 melanoma and with UACC-62 melanoma was more than 100 µM throughout.

`CC(=O)CCN1CC2CN=NC2(C#N)C1` (stereo not drawn): the TGI with 786-0 renal is more than 100 µM; with A549 NSCLC, more than 100 µM; in the experiment with ACHN renal, more than 88.7 µM; in the experiment on CCRF-CEM leukemia, more than 61 µM; with K-562 leukemia, more than 48.2 µM; in the experiment with NCI-H460 lung, more than 100 µM. Also, the TGI with SK-OV-3 ovarian, in the experiment with SR leukemia, in the experiment on TK-10 renal, in the experiment with UACC-257 melanoma and in the experiment with UACC-62 melanoma was more than 100 µM each time. Besides, the GI50 in the experiment on SK-OV-3 ovarian is more than 100 µM.

Turning to `NCC1OC(OC2C(N)CC(N)C(O)C2OC2OC(CO)C(O)C2O)C(N)C(O)C1O` (stereo not drawn), the TGI in the experiment with 786-0 renal, with A549 NSCLC, in the experiment with ACHN renal, in the experiment with CCRF-CEM leukemia, with K-562 leukemia and in the experiment on NCI-H460 lung was more than 100 µM throughout. Further, the TGI was more than 100 µM in the experiment on SK-OV-3 ovarian; more than 50 µM in the experiment on SR leukemia; more than 100 µM in the experiment on TK-10 renal; more than 100 µM with UACC-257 melanoma; more than 100 µM with UACC-62 melanoma.

As to `CN(CC(=O)O)c1ncc2c(n1)-c1ccccc1CC2`, the TGI in the experiment with 786-0 renal, in the experiment on A549 NSCLC, in the experiment with ACHN renal, with CCRF-CEM leukemia, in the experiment on K-562 leukemia and in the experiment on NCI-H460 lung was more than 100 µM throughout. In addition, the TGI in the experiment with SK-OV-3 ovarian, in the experiment with SR leukemia, in the experiment on TK-10 renal, in the experiment on UACC-257 melanoma and with UACC-62 melanoma was more than 100 µM each time.
